US7884133B2, “Pharmaceutical compositions containing (+) cannabidioil and derivatives thereof and some such novel derivatives” (priority 2003, dated 2011)
Entries after “also recorded” stand apart in the source; their conditions may differ.

Experiments:
female Sabra mice [1] = assay: Hypothermia (rectal temperature); format: in vivo; details: 20 mg/kg i.p., * = P<0.05 vs vehicle
Protocol: (§1) Mice were injected with antagonist 90 minutes before testing and/or with agonist 60 minutes before testing in a series of four assays which reflect central cannabinoid activity [Martin (1991) id. ibid.; modified by Fride, E. and R. Mechoulam (1993) id. ibid.]. This “tetrad” consists of, consecutively, ambulation and rearing in an open field (8 minutes), immobility on an elevated ring of 5 cm diameter (4 minutes), rectal temperature (Yellow
(§2) Defecation was measured as the number of fecal pellets voided in the open field. In some experiments (as indicated below), fecal pellets and body temperature were assessed for a prolonged period (3 hr).

female Sabra mice [2] = assay: Hot plate analgesia (centrally mediated pain); format: in vivo
Protocol: (§3) Pain perception on a hot plate, is considered to be mediated by a central mechanism whereas the second, late phase of the response to an implantar injection of formalin reflects inflammatory pain mechanisms [Tjolsen, A. and Hole (1997) id. ibid.].
(§4) Thus, central pain perception was assessed by the analgesic response on a hot plate (55° C., Columbus Instruments, OH, USA). Peripheral pain was measured by the response to implantar injection of formalin (4%) 45 minutes after injection of the drug.

female Sabra mice [3] = assay: Tetrad: ambulation (horizontal movements) in an open field; format: in vivo; details: 20 mg/kg i.p., open field 8 min, 30 or 60 min after injection; normalized; * = P<0.05 vs vehicle
Protocol: as §1

[4] = system: arachidonic acid-induced ear inflammation in the mouse; assay: Arachidonic acid induced inflammation of the external ear; format: in vivo; details: for potency compared to indomethacin in ear inflammation, in words: (+)-CBD-DMH 40 or 10 mg/kg vs indomethacin 20 mg/kg
Protocol: Ear inflammation was measured by assessing ear tissue swelling after topical application of arachidonic acid, as described previously [Hanus (1999) id. ibid.]. Briefly, at various times after i.p. drug injections, arachidonic acid was applied to the inner surface of one ear (4.5 mg dissolved in […] ethanol). The opposite ear served as control (5 ethanol). Ear thickness was determined (in 0.01-mm units) by using a dial thickness gauge (Mitutoyo, Japan) every 15 minutes for 90 minutes, starting immediately after arachidonic acid application.

[5] = system: formalin-induced peripheral pain in mice; assay: Formalin-induced peripheral pain (second phase); format: in vivo; details: formalin 4% in hind footpad, 45 minutes after drug; paw licks over 60 minutes
Protocol: Formalin (4%) was injected in the left hind footpad and the number of licks of the injected foot were recorded for each 5 minutes interval for the 60 minutes starting immediately after formalin application.
as §3, §4

female Sabra mice [6] = assay: Intestinal motility after antagonist pre-treatment (SR141716A, SR144528, capsazepine); format: in vivo; details: for reversal of inhibition of defecation by CB1 antagonist SR141716A / reversal of inhibition of defecation by CB2 antagonist SR144528: agonist 20 mg/kg; for reversal of inhibition of defecation by CB1 antagonist SR141716A: SR141716A 1 mg/kg i.p. 30 minutes before agonist; for reversal of inhibition of defecation by CB2 antagonist SR144528: SR144528 1 or 3 mg/kg i.p. 30 minutes before agonist
Protocol: (SR1, 1 mg/kg). SR1 was injected (i.p.) 30 minutes before the agonist. 60 minutes after (+)CBD-DMH the number of fecal pellets was recorded.
(SR2, 1 mg/kg). SR2 was injected (i.p.) 30 minutes before the agonist. 60 minutes after (+)-CBD-DMH the number of fecal pellets was recorded.
as §1, §2

[7] = system: CB1−/− receptor knockout mice; assay: Intestinal motility in CB1−/− receptor knockout mice; format: in vivo; details: 20 mg/kg i.p., defecation rate recorded for 3 hours
Protocol: Female CB1−/− knockout mice were injected i.p. with (+)-7-OH-CBD-DMH, (+)-CBD-DMH or Δ^9-THC (20 mg/kg). Intestinal motility (defecation rate) was recorded for a period of 3 hours.
(§5) Female Sabra mice (2-3 months of age) were purchased from Harlan, Israel. Breeding pairs of CB1−/− receptor knockout mice were provided by Prof. A. Zimmer, University Clinic Bonn, Germany.
as §2

female Sabra mice [8] = assay: Tetrad: rearing (vertical movements) in an open field; format: in vivo; details: 20 mg/kg i.p.
Protocol: as §1

[9] = system: CB1−/− receptor knockout mice; assay: Central effects in CB1−/− receptor knockout mice; format: in vivo; details: not shown
Protocol: as §5, §1

female Sabra mice [10] = assay: Tetrad: catalepsy (immobility) on an elevated ring; format: in vivo; details: 20 mg/kg i.p., elevated ring 4 min; normalized; * = P<0.05 vs vehicle
Protocol: as §1

female Sabra mice [11] = assay: Intestinal motility (defecation, number of fecal pellets); format: in vivo; details: 20 mg/kg i.p.
Protocol: as §2

CB2 receptor = CB2 receptor (Homo sapiens, UniProt P34972); details: cited from earlier work
Sequence of CB2 receptor (P34972 whole entry): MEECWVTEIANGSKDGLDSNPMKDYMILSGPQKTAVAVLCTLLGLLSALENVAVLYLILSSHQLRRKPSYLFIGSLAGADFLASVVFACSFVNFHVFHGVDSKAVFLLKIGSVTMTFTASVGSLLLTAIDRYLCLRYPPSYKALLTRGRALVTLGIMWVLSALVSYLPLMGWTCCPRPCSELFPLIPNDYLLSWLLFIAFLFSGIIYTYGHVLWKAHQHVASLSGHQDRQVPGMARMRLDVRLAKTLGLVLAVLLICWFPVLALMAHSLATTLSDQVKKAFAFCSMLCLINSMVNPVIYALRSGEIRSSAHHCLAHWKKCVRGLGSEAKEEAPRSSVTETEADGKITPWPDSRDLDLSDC

CB1 receptor = CB1 receptor (Rattus norvegicus, UniProt P20272); details: cited from earlier work
Sequence of CB1 receptor (P20272 whole entry): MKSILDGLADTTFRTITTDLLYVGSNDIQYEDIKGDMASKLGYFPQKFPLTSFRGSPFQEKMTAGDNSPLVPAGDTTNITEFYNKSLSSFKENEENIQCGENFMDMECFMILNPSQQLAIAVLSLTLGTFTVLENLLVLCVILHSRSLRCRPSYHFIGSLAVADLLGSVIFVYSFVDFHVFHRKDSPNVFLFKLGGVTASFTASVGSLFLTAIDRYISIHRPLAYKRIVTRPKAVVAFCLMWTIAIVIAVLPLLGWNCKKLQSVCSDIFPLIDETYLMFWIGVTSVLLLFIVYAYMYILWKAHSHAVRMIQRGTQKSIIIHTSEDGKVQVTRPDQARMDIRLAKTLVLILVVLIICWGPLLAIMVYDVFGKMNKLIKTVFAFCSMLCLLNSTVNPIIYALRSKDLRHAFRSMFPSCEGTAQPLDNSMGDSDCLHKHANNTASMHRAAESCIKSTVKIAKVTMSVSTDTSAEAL

female Sabra mice [12] = assay: Tetrad overall (central cannabinoid activity); format: in vivo; details: 20 mg/kg i.p., tested 60 minutes later
Protocol: Central activity of the compounds of the invention was assessed in the “tetrad”, which is a series of assays commonly used to measure central cannabimimmetic effects [Martin, B. R. et al. (1991) Pharmacol. Biochem. Behav. 40(3): 471-8; Fride, E. and C. Sanudo-Pena (2002) id. ibid.]. Three parameters for peripheral activity were used. Since gastrointestinal transit is regulated locally in the periphery rather than by centrally located CB1 receptors [Izzo (2000) id. ibid.; Landi (2002) id. ibid.], intestinal motility was one of the parameters used, and peripheral cannabinoid effects was measured as rates of defecation (see Example 29).
as §1

For `C=C(C)C1CCC(C)=CC1c1c(O)cc(C(C)(C)CCCCCC)cc1O` (single isomer, unassigned; (+)) [+CBD−DMH, (+)-CBD-DMH], the “Hypothermia (Δ-Body Temp.)” value (female Sabra mice [1]) was −0.3 °C, the “centrally mediated pain on hot plate, in words” value (female Sabra mice [2]; 20 mg/kg) was “not active; also recorded: not affected” and the “Analgesia (Hot Plate) (% MPE)” value (female Sabra mice [2]; 20 mg/kg i.p., hot plate 55° C., max 45 sec, normalized, * = P<0.05 vs vehicle) was 10 % MPE. The “Horizontal Movements (% MPE)” value (female Sabra mice [3]) was 82 % MPE, the “potency compared to indomethacin in ear inflammation, in words” value (shortened to “potency compared to indomethacin”) ([4]; listed as (+) CBD-DMH) was “as effective as indomethacin” and the “potency compared to indomethacin” value ([4]; listed as (+)-CBD-DMH) was “equal potency as indomethacin; also recorded: as potent as indomethacin”. For the same compound, the “potency compared to indomethacin” value ([4]; listed as (+)CBD-DMH) was “Equal potencies”, the “inhibition of arachidonic acid-induced ear inflammation, in words” value ([4]; i.p., 10 to 40 mg/kg, ear thickness every 15 minutes for 90 minutes) was “almost completely inhibited” and the “second (inflammatory) phase of formalin-induced pain, in words” value [5] was “completely inhibited the second phase; also recorded: almost completely inhibited; also recorded: almost completely prevented the second phase of pain”. For the same compound, the “reversal of inhibition of defecation by CB1 antagonist SR141716A” value (female Sabra mice [6]; listed as (+) CBD-DMH) was “almost fully reversed”, the “reversal of inhibition of defecation by CB1 antagonist SR141716A” value (female Sabra mice [6]; listed as (+)-CBD-DMH) was “effectively antagonized; also recorded: partial reversal” and the “reversal of inhibition of defecation by CB2 antagonist SR144528” value (female Sabra mice [6]; listed as (+) CBD-DMH) was “not at all”. The “reversal of inhibition of defecation by CB2 antagonist SR144528” value (female Sabra mice [6]; listed as (+)-CBD-DMH) was “not at all; also recorded: did not prevent; also recorded: no reversal”, the “effect of VR1 antagonist capsazepine on inhibition of defecation” value (female Sabra mice [6]; data not shown) was “did not affect” and the “effect on intestinal motility in CB1−/− knockout mice” value [7] was “absence of inhibition of intestinal motility; also recorded: None of the drugs assessed ((+)-CBD-DMH, (+)-7-OH-CBD-DMH and Δ^9-THC had any effect; also recorded: no effects”. The “effect on rearing in an open-field, in words” value (female Sabra mice [8]) was “modest effect”, the “Vertical Movements (% MPE)” value (female Sabra mice [8]; open field 8 min, normalized, * = P<0.05 vs vehicle) was 61 % MPE and the “central effects in CB1−/− receptor knockout mice” value [9] was “None of the drugs assessed ((+)-CBD-DMH, (+)-7-OH-CBD-DMH and Δ^9-THC had any effect”. The “Catalepsy (Freezing of Movement) (% MPE)” value (female Sabra mice [10]) was 16 % MPE, the “inhibition of defecation / intestinal motility, in words” value (female Sabra mice [11]; 60 minutes after injection) was “completely blocked” and the “Inhibition of Intesitinal Motility (% MPE)” value (female Sabra mice [11]; defecation in open field 8 min, normalized, * = P<0.05 vs vehicle) was 100* % MPE. The Kd (CB2 receptor; previously reported, Bisogno et al. 2001, read-out: affinity for the CB2 receptor (Kd)) was 211 nM, the Ki (CB2 receptor; second value of CB1/CB2 cell, data from Bisogno et al., 2001, read-out: CB2 Receptor Binding (Ki)) was 210 nM and the Ki (CB1 receptor; first value of CB1/CB2 cell, data from Bisogno et al., 2001, read-out: CB1 Receptor Binding (Ki)) was 17 nM. The Kd (CB1 receptor; previously reported, Bisogno et al. 2001, read-out: affinity for the CB1 receptor (Kd)) was 17.4 nM and the “central effects (tetrad), in words” value (female Sabra mice [12]) was “absence of central effects or small effects; also recorded: Lack of central effects”.
